The text below walks through data of US10463716B2 (UNIVERSITY OF MARYLAND, BALTIMORE, priority 2014, dated 2019).

Series [1] deals with mouse aortic rings. As to the kind of experiment: Endothelium-dependent and -independent vasorelaxation of aortic rings. Conditions: for decrease of relaxation by removal of endothelium: denuded vs endothelium-intact vessels. The protocol: Aortas were isolated from 8-10 weeks male wild-type C57BL/6 mice, cut into 3-mm rings and mounted in organ chambers (PowerLab, AD Instruments, CO, USA) in Kreb's buffer as described previously (11, 12). The contractile response was elicited by vasoconstrictor U46619 (30 nM) to produce contraction. […] In some preparations, the endothelium was mechanically removed from denuded arteries by gentle rubbing off the intimal surface with a wooden stick.
Apelin is reported to relax vascular tone (14) and lower blood pressure. […] The aortic rings were induced to contraction with vasoconstrictor U46619 (final concentration, 30 nM).
To further determine whether nitric oxide (NO) participated in the relaxation, the blood vessels were pretreated with L-NAME, an NO production inhibitor. […] The effect of apelin-13 on blood vessels was studied in parallel for comparison.

In series [2] the test system is Sprague-Dawley rats. As to the kind of experiment: MI-induced heart failure by coronary artery ligation in rats, Fc-ELA-32. In kind it is in vivo, rat. The protocol:
It was studied whether Fc-ELA fusion proteins have cardioprotective activities in heart failure caused by myocardial infarction (MI) in rats. MI was inflicted by standard left anterior descending coronary artery ligation (CAL) in Sprague-Dawley rats (8-weeks old, male). One week post-operation, recombined Fc-ELA-32 protein was administrated by subcutaneous injection at the dosage of 300 μg/kg bodyweight/day for two weeks. Phosphate-buffered saline (PBS) was used as the control. One week after the administration or at the end of the four weeks of MI, cardiac performance was evaluated by a pressure transducer which was inserted retrograde from the right carotid artery to the left ventricle cavity. Heart tissue samples were taken and fixed with 4% paraformaldehyde for 24 hours and then embedded in paraffin and sectioned for histopathologic examination.
Apoptosis was assessed by terminal deoxynucleotidyl transferase-mediated dUTP nick end labeling (TUNEL) and caspase-3 activity assay. […] TUNEL-positive nuclei in the LV free wall were counted within a 4-mm^2 square of field. […]
Masson staining which specifically stains collagens in blue was conducted on tissue sections of the infarcted heart area. Collagen volume fraction (CVF) is calculated by dividing of the blue stained area, which scattered between the surviving myocytes and around the blood vessels by the total area. […]

In series [3] the test system is aldosterone synthase CYP11B2. As to the kind of experiment: Ang II-induced aldosterone synthase gene expression (qPCR) in HAC15 cells. Type of series: cell-based, human. To be noted: ELA 50 nM, Ang II 10 nM, 47 hours. A general note: Quantitative PCR measures a nucleic acid by following its amplification.
In series [4] the test system is human pluripotent stem cells (PSCs). Kind of series: Cardiomyocyte differentiation from pluripotent stem cells. Type of series: cell-based. To be noted: data not shown. From the text:
The question of whether ELA-APJ promotes human pluripotent stem cells (PSCs) into mesoderm derivatives including mesenchymal stem cells, adipocytes and cardiomyocytes was studied. […] Without being bound by theory, the kidney is a crucial organ that maintains circulation homeostasis.

For series [5], the system named is C57/BL mice. Kind of series: MI-induced heart failure by coronary artery ligation, echocardiography. In kind it is in vivo, mouse. The protocol:
C57/BL wild type mice at age of 14-16 months old were used. Mice were subjected to either MI by permanent ligation or sham treatment with a loose suture of the proximal left anterior descending (LAD) coronary artery under general anesthesia by 2% isoflurane inhalation, and mechanical ventilation via oral intubation. Left thoracotomy in the 3-4 intercostal space was performed and the pericardium was opened to expose the LV and the LAD. The artery was circled a 8-0 silk suture, and then either ligated permanently or remained loose (sham).
Twelve to 14 mice were used in each group.
Data were calculated with the accepted formulae, which have been validated in mice.
Coronary artery ligation (CAL) is a well-used procedure to create a mouse model of acute myocardial infarction (MI) and heart failure (HF). […] Echocardiography was conducted to access heart function before the procedure (baseline), and at 1 week and 5 weeks post-MI.

Series [6] relates to C57/BL6 mice. As to the kind of experiment: Diuresis in anesthetized mice. Conditions: 200 nmol/kg intravenously, one hour collection vs baseline hour. Type of series: in vivo, mouse. From the text: Four male C57/BL6 mice aged from 10 to 12 weeks were anesthetized with pentobarbital and then placed on a heated table to maintain body temperature and tracheotomized. Catheters were inserted into the external jugular veins for infusing normal saline to replace fluid loss and anesthesia, and into carotid artery for measuring blood pressure and heart rates. Urine was collected via a suprapubic cystostomy (PE-50-flanged end). After a 30-min stabilization period, urine was collected for a period of one hour as a baseline volume.

For series [7] the following is noted: mature ELA hormone; cited from earlier work.
In series [8] the test system is APJ. Kind of series: qPCR of APJ mRNA in mice infused with ELA. Type of series: in vivo, mouse.
Series [9] deals with HUVECs. As to the kind of experiment: In vitro angiogenesis (tube formation) assay. Type of series: cell-based, human. As to the method: Tube formation assay for angiogenesis was conducted in 24-well plates were coated with 50 μl of Geltrex (Life Technologies, A14133-02) and left for polymerization by incubation for 1 hour at 37° C. […] Quantification of tube formation was performed after 10 hours of culture by calculating the number of branching point formed in each well under an inverted phase contrast photomicroscope (Olympus IX5O) as described^37.
ELA is a secreted hormone and expressed in adult kidney and prostate, and may, therefore, circulate in blood. […] Vascular tube formation assay is a well-used in vitro study to assess angiogenic factors and conditions in which vascular cells, e.g., human umbilical […] endothelial cells (HUVECs), can form tube-like structures under proangiogenic conditions in culture wells coated with Geltrex containing extra-cellular matrix. The number of branch points was an indicator of the strength of angiogenic stimuli.

For series [10], the system named is empty vector control CHO-K 1 cells. Kind of series: Parallel control experiments (cAMP, ERK, calcium) in empty vector cells. In kind it is cell-based, Chinese hamster. To be noted: cells transduced with empty vector control viruses. From the text:
Activation of APJ is known to result in a decrease of cAMP production, stimulation of ERK and increase in intercellular calcium mobilization (13). […] APJ-over-expressing and empty vector control CHO-K 1 cells were used in the studies. APJ expression was confirmed by RT-PCR. […] The response was dose-dependent up to the concentration of 10^−5M (FIG. 3C, lower panel).

The subject of series [11] is human cardiomyocytes. Kind of series: Hypoxia-induced apoptosis (TUNEL) in cardiomyocytes from human pluripotent stem cells. In kind it is cell-based. Conditions: ELA 0.5 μM. The text has this: Cellular mechanisms of cardioprotection in MI include the less cell death due to necrosis and apopotosis, increased angiogenesis and reduced fibrosis. […] Apelin is reported to protect against glucose deprivation-induced apoptosis in rat neonatal cardiomyocytes and to increase Akt and mTOR phosphorylation.

The mark [12] stands for this setting: endothelium-intact vessels, contracted with U46619 30 nM.

Turning to `CSCC[C@H](NC(=O)[C@@H](NC(=O)[C@H](CC(C)C)NC(=O)[C@H](CC(N)=O)NC(=O)[C@@H](NC(=O)[C@@H]1CCCN1C(=O)[C@H](CCCNC(=N)N)NC(=O)[C@@H](N)CCC(N)=O)C(C)C)[C@@H](C)O)C(=O)N[C@@H](CCCNC(=N)N)C(=O)N[C@@H](CCCNC(=N)N)C(=O)N[C@@H](CCCCN)C(=O)N[C@@H](CC(C)C)C(=O)N[C@@H](CCCNC(=N)N)C(=O)N[C@@H](CCCCN)C(=O)N[C@@H](Cc1c[nH]cn1)C(=O)N[C@@H](CC(N)=O)C(=O)N[C@H]1CSSC[C@@H](C(=O)N[C@@H](CCSC)C(=O)N2CCC[C@H]2C(=O)N[C@@H](CC(C)C)C(=O)N[C@@H](Cc2c[nH]cn2)C(=O)N[C@@H](CO)C(=O)N[C@@H](CCCNC(=N)N)C(=O)N[C@H](C(=O)N2CCC[C@H]2C(=O)N[C@@H](Cc2ccccc2)C(=O)N2CCC[C@H]2C(=O)O)C(C)C)NC(=O)[C@H](CCCNC(=N)N)NC(=O)[C@H](CCCNC(=N)N)NC(=O)[C@H](CCC(N)=O)NC(=O)[C@H](CC(C)C)NC1=O` [ELA, Elabela], the “decrease of relaxation by removal of endothelium” value in [1] is listed as “about 20%”. For the same molecule, the maximum relaxation in series [1] (setting [12]) amounted to 73.7%. Further, in [1] (pretreated with 1 mM L-NAME), the “relaxation, L-NAME-treated vs none-treated vessels” value is listed as “No significant difference”. In addition, the “TUNEL green-labeled apoptotic cells in heart sections” value in [2] is listed as “much less green-labeled cells”. Also, the “Ang II-induced gene expression of aldosterone synthase” value in series [3] is reported as “significantly suppressed”. Also, in series [4], the “cardiomyocyte differentiation from PSCs” value is listed as “potent inducer of cardiomyocyte differentiation”. In addition, in series [5] (MI mice, ELA group, Baseline), the FS_LVD amounted to 29.65 ± 4.16%, the FS_LVPW turned out to be 30.36 ± 3.65%, the IVSd was 0.61 ± 0.05 mm and the IVSs worked out at 0.99 ± 0.04 mm. Also, in series [5] (MI mice, ELA group, Baseline), the LVDd worked out at 3.87 ± 0.20 mm, the LVDs was 2.68 ± 0.11 mm, the LVEF came out at 61.84 ± 7.39% and the LVPWd is reported as 0.70 ± 0.03 mm. Moreover, the LVPWs in series [5] (MI mice, ELA group, Baseline) was determined as 1.01 ± 0.04 mm. Besides, in series [5] (MI mice, ELA infusion, Week 5), the FS_LVD is recorded as 22.68 ± 1.21 %, the FS_LVPW is 22.46 ± 4.49%, the IVSd came to 0.73 ± 0.07 mm and the IVSs is reported as 0.96 ± 0.11 mm. In series [5] (MI mice, ELA infusion, Week 5), this molecule showed an LVDd of 4.48 ± 0.17 mm, an LVDs of 3.47 ± 0.16 mm, an LVEF of 45.65 ± 2.16 % and an LVPWd of 0.75 ± 0.05 mm. The molecule further gave an LVPWs in series [5] (MI mice, ELA infusion, Week 5) of 0.97 ± 0.04 mm. Also, the “degree of left ventricular dilation and contractile dysfunction” value in series [5] (MI mice, ELA vs vehicle) is on record as “significantly mitigated”. The “mice died during the experimental period” value in [5] (MI mice, one-month experimental period, control three of nine) is “one of eight”. Moreover, the “heart performance in sham op animals, vehicle vs ELA” value in series [5] (sham op mice) is “no statistical difference”. In series [6], the urine volume entry is given as “increased by about one fold”. Further, the isoelectric point result in [7] is “exceeding 12”. Moreover, in series [8], the “APJ mRNA expression” value is “tended to decrease”. Further, in series [9] (APJ-knock down HUVECs), the “formation of tubular structures” value is “not effective”. For the same molecule, the “increase in number of branch points” value in series [9] (ELA 0.1 μM) was 71.9%. Besides, the “increase in number of branch points” value in [9] (ELA 0.5 μM) came out at 222.8%. The “increase in number of branch points” value in series [9] (ELA 1 μM) worked out at 266.7%. In series [10], the “changes in cAMP, ERK ½ and calcium assays in empty vector control cells” value was “no meaningful changes”. In addition, the “number of TUNEL-stained cells” value in series [11] was “significantly reduced”.

With apelin-13 [reference compound], the maximum relaxation in series [1] (denuded (endothelium removed) vessels) is given as 31%; in series [1] (setting [12]) it was 79%. In series [1], the “decrease of relaxation by removal of endothelium” value turned out to be 48%.
